Experimental data reported in ChEMBL document CHEMBL5390237, “Discovery of Selective Histone Deacetylase 1 and 2 Inhibitors: Screening of a Focused Library Constructed by Click Chemistry, Kinetic Binding Analysis, and Biological Evaluation” (J Med Chem, 2023).
The source made the active and inactive calls. The calls are words filed in the database; no cut-off is given here.

Tests used:
[1] = target: Histone deacetylase 9 (Homo sapiens) (UniProt Q9UKV0); assay: Inhibition of recombinant human HDAC9 using fluorogenic substrate preincubated for 3 hrs followed by substrate addition and measured after 30 mins by fluorescence analysis; details: time 3.5 hrs
[2] = Cytotoxicity against human HMEC cells assessed as inhibition of cell viability incubated for 3 days by AlamarBlue based fluorescence analysis
Histone deacetylase 2 [3] = target: T1, Histone deacetylase 2 (Homo sapiens, UniProt Q92769); details: Sf9, time 60.0 min
Histone deacetylase 2 [4] = target: T1, Histone deacetylase 2; assay: biochemical; format: cell-based, Sf9
[5] = target: Histone deacetylase 5 (Homo sapiens) (UniProt Q9UQL6); assay: Inhibition of recombinant human HDAC5 using fluorogenic substrate preincubated for 3 hrs followed by substrate addition and measured after 30 mins by fluorescence analysis; details: time 3.5 hrs
MCF7 [6] = assay: Downregulation of CCNE2 gene expression in human MCF7 cells at 2 uM incubated for 24 hrs by microarray analysis; format: functional, cell-based
MCF7 [7] = assay: Upregulation of TES gene expression in human MCF7 cells at 2 uM incubated for 24 hrs by RT-qPCR analysis; format: functional, cell-based
[8] = target: T2, Histone deacetylase 7 (Homo sapiens) (UniProt Q8WUI4); assay: Inhibition of recombinant human HDAC7 using fluorogenic substrate preincubated for 3 hrs followed by substrate addition and measured after 30 mins by fluorescence analysis; details: time 3.5 hrs
T2 sequence (whole entry): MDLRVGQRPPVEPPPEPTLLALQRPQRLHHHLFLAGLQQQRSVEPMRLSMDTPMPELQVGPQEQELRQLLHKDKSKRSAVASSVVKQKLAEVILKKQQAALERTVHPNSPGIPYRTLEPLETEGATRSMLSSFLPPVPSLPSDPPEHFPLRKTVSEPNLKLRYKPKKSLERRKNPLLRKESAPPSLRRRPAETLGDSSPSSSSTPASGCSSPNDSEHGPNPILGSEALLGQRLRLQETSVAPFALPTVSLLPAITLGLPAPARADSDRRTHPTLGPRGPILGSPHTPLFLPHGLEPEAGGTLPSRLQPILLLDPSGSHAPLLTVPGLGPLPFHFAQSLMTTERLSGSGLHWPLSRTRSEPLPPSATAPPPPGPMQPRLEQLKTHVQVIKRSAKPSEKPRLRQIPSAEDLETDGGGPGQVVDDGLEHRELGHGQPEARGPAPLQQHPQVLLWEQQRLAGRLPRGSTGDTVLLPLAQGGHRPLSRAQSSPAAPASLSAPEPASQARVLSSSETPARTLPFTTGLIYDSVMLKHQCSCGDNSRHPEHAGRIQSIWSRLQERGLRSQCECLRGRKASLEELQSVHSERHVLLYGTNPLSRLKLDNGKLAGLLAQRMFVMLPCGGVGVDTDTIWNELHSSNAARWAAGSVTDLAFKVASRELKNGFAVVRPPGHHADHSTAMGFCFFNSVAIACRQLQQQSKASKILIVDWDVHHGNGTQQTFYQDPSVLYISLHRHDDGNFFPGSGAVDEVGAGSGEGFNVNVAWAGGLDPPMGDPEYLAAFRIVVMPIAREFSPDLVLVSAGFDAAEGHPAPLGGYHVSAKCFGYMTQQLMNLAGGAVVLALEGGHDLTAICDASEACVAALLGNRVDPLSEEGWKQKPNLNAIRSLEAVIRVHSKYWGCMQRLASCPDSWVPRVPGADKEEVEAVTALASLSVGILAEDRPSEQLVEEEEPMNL

[9] = target: T3, Protein deacetylase HDAC6 (Homo sapiens) (UniProt Q9UBN7); assay: Inhibition of full-length recombinant human C-terminal GST tagged HDAC6 expressed in Sf9 insect cells using aminoluciferin peptide substrate preincubated for 3 hrs followed by substrate addition and measured after 30 mins by HDAC-Glo I/II chemiluminescence assay; details: time 3.5 hrs
T3 sequence (whole entry): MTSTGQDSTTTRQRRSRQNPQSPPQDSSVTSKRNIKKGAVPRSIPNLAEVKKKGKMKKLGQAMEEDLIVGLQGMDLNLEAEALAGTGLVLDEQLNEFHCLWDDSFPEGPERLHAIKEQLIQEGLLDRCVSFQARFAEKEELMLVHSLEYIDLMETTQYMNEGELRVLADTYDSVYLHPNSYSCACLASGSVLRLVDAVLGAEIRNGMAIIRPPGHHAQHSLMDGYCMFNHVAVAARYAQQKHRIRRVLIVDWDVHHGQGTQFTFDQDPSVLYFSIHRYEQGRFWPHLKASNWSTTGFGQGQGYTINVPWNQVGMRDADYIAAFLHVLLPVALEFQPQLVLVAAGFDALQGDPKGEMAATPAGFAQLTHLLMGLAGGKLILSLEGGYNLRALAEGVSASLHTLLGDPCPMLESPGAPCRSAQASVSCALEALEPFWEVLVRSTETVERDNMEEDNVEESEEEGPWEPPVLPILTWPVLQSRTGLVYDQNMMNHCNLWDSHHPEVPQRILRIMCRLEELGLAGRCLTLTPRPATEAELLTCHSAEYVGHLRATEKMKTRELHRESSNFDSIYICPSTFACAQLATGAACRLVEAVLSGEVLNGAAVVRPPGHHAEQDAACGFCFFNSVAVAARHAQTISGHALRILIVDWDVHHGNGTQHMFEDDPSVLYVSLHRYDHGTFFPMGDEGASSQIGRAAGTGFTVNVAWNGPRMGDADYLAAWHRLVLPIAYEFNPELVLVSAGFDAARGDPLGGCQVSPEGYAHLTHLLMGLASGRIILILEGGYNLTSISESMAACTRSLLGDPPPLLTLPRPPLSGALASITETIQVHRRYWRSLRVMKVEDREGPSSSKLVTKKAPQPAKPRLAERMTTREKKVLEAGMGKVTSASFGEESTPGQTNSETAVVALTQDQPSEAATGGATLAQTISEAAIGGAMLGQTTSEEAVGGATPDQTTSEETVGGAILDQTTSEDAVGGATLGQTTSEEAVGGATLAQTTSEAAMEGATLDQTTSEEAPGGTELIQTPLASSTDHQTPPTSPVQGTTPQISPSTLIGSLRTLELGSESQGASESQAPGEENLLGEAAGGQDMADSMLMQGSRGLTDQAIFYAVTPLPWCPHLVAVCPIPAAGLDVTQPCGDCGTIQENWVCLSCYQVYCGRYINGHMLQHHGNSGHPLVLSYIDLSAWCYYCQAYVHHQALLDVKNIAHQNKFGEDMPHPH

Histone deacetylase 2 [10] = target: T1, Histone deacetylase 2; details: Sf9, time 60.0 min; remark: listed apart in the source
Histone deacetylase 2 [11] = target: T1, Histone deacetylase 2; assay: Inhibition of full-length recombinant human C-terminal GST tagged HDAC2 expressed in Sf9 insect cells assessed as second order dissociation rate constant (k-2) using Ac-LGK(Ac)-AMC substrate and measured for 60 mins at 2 mins interval by fluorescence analysis
Histone deacetylase 2 [12] = target: T1, Histone deacetylase 2; assay: Inhibition of full-length recombinant human C-terminal GST tagged HDAC2 expressed in Sf9 insect cells assessed as second order […] rate constant (k2) using Ac-LGK(Ac)-AMC substrate and measured for 60 mins at 2 mins interval by fluorescence analysis

Chain of Histone deacetylase 9 (Homo sapiens) (Q9UKV0 whole entry): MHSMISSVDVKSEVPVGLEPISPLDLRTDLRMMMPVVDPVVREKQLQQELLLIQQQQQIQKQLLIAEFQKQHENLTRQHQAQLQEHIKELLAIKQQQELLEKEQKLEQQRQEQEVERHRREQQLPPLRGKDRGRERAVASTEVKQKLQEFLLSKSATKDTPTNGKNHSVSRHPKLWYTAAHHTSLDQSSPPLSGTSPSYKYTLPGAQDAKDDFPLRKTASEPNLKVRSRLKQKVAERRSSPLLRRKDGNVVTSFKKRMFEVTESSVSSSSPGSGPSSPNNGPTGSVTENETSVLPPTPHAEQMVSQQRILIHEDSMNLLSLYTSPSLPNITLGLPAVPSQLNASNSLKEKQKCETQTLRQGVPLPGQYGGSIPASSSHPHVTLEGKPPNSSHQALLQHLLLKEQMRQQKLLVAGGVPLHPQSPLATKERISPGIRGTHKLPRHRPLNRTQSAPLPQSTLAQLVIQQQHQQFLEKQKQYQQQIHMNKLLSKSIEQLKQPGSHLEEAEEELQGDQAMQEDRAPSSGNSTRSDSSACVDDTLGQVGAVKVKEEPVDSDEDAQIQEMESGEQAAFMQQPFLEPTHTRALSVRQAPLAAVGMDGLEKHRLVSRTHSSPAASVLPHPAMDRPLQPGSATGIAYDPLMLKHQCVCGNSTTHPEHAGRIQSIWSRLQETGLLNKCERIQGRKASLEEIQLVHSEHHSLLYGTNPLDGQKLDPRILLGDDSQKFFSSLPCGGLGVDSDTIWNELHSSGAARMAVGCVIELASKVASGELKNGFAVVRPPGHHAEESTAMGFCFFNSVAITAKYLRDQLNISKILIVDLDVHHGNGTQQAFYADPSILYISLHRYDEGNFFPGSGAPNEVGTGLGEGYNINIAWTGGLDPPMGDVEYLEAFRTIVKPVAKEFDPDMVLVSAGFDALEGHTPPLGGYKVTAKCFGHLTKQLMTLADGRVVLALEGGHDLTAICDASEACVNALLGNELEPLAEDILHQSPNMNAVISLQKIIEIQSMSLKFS
Chain of Histone deacetylase 5 (Homo sapiens) (Q9UQL6 whole entry): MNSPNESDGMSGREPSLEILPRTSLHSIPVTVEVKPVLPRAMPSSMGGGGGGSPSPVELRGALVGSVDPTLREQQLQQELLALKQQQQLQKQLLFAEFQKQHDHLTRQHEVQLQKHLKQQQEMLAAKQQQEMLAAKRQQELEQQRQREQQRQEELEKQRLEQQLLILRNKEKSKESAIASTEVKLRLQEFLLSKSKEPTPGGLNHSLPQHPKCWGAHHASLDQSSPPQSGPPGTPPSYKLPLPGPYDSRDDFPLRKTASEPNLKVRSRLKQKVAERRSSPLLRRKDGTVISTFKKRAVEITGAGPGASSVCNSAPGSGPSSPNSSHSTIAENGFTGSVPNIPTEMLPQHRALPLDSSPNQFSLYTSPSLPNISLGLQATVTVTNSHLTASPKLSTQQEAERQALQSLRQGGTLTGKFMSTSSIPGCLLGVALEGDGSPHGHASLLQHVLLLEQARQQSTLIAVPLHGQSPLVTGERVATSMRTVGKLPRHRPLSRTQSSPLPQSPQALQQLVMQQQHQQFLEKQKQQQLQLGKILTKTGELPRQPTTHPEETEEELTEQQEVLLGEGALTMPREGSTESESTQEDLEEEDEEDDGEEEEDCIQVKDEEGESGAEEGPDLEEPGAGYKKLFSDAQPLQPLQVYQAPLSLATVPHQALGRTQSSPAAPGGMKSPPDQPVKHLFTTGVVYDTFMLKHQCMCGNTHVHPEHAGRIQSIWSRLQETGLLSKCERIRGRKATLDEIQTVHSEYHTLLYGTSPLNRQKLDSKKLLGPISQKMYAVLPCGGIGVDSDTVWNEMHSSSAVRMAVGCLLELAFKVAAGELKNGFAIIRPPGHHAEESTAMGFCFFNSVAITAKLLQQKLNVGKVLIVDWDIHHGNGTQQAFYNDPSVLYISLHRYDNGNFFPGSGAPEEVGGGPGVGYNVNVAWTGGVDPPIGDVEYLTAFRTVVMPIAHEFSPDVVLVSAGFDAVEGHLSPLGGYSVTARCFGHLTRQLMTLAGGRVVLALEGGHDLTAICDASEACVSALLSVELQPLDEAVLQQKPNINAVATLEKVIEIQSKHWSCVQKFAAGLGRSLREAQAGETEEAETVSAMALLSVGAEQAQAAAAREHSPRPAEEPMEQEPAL
T1 sequence (Q92769 whole entry): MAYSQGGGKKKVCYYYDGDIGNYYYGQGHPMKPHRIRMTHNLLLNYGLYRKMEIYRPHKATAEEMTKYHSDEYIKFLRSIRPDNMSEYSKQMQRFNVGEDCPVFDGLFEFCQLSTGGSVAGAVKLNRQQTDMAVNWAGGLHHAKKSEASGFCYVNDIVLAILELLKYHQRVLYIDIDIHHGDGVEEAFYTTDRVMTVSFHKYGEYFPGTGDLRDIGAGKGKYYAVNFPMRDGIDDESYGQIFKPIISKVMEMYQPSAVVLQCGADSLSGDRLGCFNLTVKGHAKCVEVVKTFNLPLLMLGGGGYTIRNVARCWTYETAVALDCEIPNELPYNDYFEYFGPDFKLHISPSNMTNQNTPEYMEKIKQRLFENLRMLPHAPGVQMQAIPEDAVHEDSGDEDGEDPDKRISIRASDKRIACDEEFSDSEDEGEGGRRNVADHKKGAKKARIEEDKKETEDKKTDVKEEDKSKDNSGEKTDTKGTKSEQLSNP

Row | SMILES | inhibition [1] | IC50 at 3 days [2] | Kdiss (Histone deacetylase 2 [3]) | Ki (Histone deacetylase 2 [4]) | inhibition [5] | Activity (MCF7 [6]) | Activity (MCF7 [7]) | inhibition [8] | inhibition [9] | ka (Histone deacetylase 2 [10]) | Kdiss (Histone deacetylase 2 [11]) | ka (Histone deacetylase 2 [12])
1 | Nc1ccc(-c2cccs2)cc1NC(=O)c1ccc(-c2cn(C[S+]([O-])c3ccccc3)nn2)cc1 (stereo not given) | inactive | > 10000 nM | 0.000117 s⁻¹ | 22 nM | inactive | Active | Active | inactive | inactive | 5330 M⁻¹ s⁻¹ |  | 
2 | Nc1ccc(-c2cccs2)cc1NC(=O)c1ccc(-c2cn(CS(=O)(=O)c3ccccc3)nn2)cc1 | inactive | 9850 nM |  | 6.2 nM | inactive | Active | Active | inactive | inactive |  | 3.33e-05 s⁻¹ | 683 M⁻¹ s⁻¹
3 | Nc1ccc(-c2cccs2)cc1NC(=O)c1ccc(-c2cn(CCc3ccccn3)nn2)cc1 | inactive | 4350 nM | 8.33e-05 s⁻¹ | 9.8 nM | inactive | Active | Active | inactive | inactive | 8830 M⁻¹ s⁻¹ |  | 
